Entries after “also recorded” stand apart in the source; their conditions may differ. Values belong to the molecule of their own block, whether it stands above or below them.
Assays:
rat A3 AR = biological target: T1, rat A3 AR (Rattus norvegicus, UniProt P28647); assay: Radioligand binding at rat A3 AR; settings: for Binding affinity at the rat A3 AR (in words): CHO cells
T1 sequence (P28647 1-320): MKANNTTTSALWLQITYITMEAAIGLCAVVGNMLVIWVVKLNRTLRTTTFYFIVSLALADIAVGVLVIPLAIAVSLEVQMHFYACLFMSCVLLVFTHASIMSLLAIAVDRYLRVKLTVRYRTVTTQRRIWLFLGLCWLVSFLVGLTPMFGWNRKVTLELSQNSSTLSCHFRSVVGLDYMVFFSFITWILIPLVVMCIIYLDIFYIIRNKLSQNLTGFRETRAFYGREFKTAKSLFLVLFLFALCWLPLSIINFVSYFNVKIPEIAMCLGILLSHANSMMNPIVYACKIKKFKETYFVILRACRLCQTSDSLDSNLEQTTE

human A3 AR = biological target: T2, human A3 AR (Homo sapiens, UniProt P0DMS8); assay: Radioligand binding at human A3 AR; settings: stated for all subtypes of ARs (hA1, hA2A, hA3)
T2 sequence (P0DMS8 1-318): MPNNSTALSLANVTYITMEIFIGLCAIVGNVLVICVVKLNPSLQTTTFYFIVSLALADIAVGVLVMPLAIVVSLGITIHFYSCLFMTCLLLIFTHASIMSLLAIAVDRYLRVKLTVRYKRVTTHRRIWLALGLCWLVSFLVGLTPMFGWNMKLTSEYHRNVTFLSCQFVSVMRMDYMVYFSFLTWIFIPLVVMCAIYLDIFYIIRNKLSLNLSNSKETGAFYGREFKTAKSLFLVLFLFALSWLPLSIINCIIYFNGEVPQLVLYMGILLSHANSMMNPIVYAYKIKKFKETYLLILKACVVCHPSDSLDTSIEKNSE

human A2B AR = settings: cited from earlier work

Ki (rat A3 AR): 658 ± 160 nM
Binding affinity at the rat A3 AR (in words) (rat A3 AR): lost their binding affinities
SMILES: CNc1nc(Cl)nc2c1ncn2[C@@H]1SC[C@@H](O)[C@H]1O [Compound 6a]

Binding affinity (in words) (human A3 AR): totally devoid of binding affinities
SMILES: O[C@H]1[C@@H](O)CS[C@@H]1n1cnc2c(NCc3cccc(Br)c3)nc(Cl)nc21 [Compound 7f]

Ki (rat A3 AR): 6.1 ± 1.8 nM
SMILES: O[C@@H]1[C@H](O)CS[C@H]1n1cnc2c(NCc3cccc(Br)c3)nc(Cl)nc21 [Compound 6d]

SMILES: CNc1ncnc2c1ncn2[C@@H]1SC[C@@H](O)[C@H]1O [Compound 7a, (2R,3R,4S)-Tetrahydro-2-(6-(methylamino)-9H-purin-9-yl)thiophene-3,4-diol]
Binding affinity at the rat A3 AR (in words) (rat A3 AR): totally devoid of A3AR binding affinity; also recorded: lost their binding affinities

Ki (rat A3 AR): 36.2 ± 10.7 nM
SMILES: O[C@@H]1[C@H](O)CS[C@H]1n1cnc2c(NCc3cccc(F)c3)nc(Cl)nc21 [Compound 6b]

SMILES: O[C@@H]1[C@H](O)CS[C@H]1n1cnc2c(NCc3cccc(I)c3)nc(Cl)nc21 [Compound 6e]
Activity as agonist or antagonist in a cyclic AMP functional assay at the hA2B AR (human A2B AR): inactive as agonist or antagonist

Binding affinity (in words) (human A3 AR): totally devoid of binding affinities
SMILES: O[C@H]1[C@@H](O)CS[C@@H]1n1cnc2c(NCc3cccc(I)c3)nc(Cl)nc21 [Compound 7g]
